For orientation: IC50 means the concentration needed to halve the response being measured.

A short description of the test: Inhibition of CXCL1-induced human neutrophil chemotaxis.

As to `CC[C@@H](Nc1c(Nc2cccc(C(=O)N(C)C)c2O)c(=O)c1=O)c1ccccc1` [(R)-3-(3,4-dioxo-2-(1-phenylpropylamino)cyclobut-1-enylamino)-2-hydroxy-N,N-dimethylbenzamide], the IC50 amounted to 0.048 µM.

`Cc1ccc([C@@H](C)Nc2c(Nc3cccc(C(=O)N(C)C)c3O)c(=O)c2=O)o1` [(R)-2-hydroxy-N,N-dimethyl-3-(2-(1-(5-methylfuran-2-yl)ethylamino)-3,4-dioxocyclobut-1-enylamino)benzamide] had an IC50 of 0.0024 µM.
